Laboratory results from PMC3984115 (PLoS ONE, 2014).
“And” between values parts separate entries of the source, which are not always exact repeats. Equal entries are not always repeated. Where two headings read alike, the source gives them in different places. Where no end group is shown, it is not given here.

Experiments:
[1] = tested on: heteromeric receptor subtypes that contain the β2 subunit; design: method as in PMID 10692507; conditions: β2-containing heteromeric receptors; ref [38]; cited from earlier work
[2] = tested on: nAChRs in monkey adrenal chromaffin cells; experiment: Agonist-evoked currents, perforated-patch patch-clamp, monkey adrenal chromaffin cells; assay type: cell-based, monkey (Macaca mulatta); conditions: for current amplitude (choline comparison cells): 10 mM choline versus 300 μM ACh in the same cells
[3] = molecular target: T1, human α6/α3β4 nAChR (Homo sapiens, UniProt P30926+P32297+Q15825); assay type: cell-based
T1 construct: expressed in transfected cells; host or cells: Xenopus laevis oocytes (cRNA injection, 1:1 ratio)

[4] = tested on: M. mulatta α7 nAChRs; conditions: heterologously expressed M. mulatta α7; ref [37]; cited from earlier work
[5] = tested on: release of dopamine from dopaminergic terminals of mouse striatal neurons; conditions: cited from earlier work
[6] = tested on: release of dopamine from dopaminergic terminals of rat striatal neurons; conditions: cited from earlier work

T1 sequence (P30926 whole entry, looked up): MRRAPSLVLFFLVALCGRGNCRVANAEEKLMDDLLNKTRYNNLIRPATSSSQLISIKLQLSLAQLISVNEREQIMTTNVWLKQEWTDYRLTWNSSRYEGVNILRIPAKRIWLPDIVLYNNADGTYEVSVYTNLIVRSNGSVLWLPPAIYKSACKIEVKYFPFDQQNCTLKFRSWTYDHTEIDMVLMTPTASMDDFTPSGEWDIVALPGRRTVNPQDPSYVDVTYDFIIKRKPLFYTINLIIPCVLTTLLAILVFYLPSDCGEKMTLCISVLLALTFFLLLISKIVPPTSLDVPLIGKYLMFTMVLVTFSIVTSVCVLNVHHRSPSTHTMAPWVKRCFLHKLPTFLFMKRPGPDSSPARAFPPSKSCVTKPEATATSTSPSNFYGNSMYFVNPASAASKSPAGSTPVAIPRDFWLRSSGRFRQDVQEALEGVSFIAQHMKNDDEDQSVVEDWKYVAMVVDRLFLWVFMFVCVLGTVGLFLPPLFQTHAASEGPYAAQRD
T1 sequence (P32297 whole entry, looked up): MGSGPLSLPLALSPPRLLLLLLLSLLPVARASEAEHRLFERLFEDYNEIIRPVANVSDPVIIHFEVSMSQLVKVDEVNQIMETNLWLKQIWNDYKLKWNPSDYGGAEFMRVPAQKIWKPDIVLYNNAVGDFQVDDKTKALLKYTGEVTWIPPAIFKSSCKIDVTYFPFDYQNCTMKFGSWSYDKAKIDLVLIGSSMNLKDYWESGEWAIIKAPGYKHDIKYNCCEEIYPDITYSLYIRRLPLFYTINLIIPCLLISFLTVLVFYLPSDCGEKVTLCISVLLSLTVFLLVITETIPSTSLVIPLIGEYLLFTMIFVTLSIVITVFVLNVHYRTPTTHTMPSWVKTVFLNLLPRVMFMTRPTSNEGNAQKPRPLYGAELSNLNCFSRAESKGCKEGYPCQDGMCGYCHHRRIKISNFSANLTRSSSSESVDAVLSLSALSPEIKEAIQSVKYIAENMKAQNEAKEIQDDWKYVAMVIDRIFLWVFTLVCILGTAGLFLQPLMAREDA
T1 sequence (Q15825 whole entry, looked up): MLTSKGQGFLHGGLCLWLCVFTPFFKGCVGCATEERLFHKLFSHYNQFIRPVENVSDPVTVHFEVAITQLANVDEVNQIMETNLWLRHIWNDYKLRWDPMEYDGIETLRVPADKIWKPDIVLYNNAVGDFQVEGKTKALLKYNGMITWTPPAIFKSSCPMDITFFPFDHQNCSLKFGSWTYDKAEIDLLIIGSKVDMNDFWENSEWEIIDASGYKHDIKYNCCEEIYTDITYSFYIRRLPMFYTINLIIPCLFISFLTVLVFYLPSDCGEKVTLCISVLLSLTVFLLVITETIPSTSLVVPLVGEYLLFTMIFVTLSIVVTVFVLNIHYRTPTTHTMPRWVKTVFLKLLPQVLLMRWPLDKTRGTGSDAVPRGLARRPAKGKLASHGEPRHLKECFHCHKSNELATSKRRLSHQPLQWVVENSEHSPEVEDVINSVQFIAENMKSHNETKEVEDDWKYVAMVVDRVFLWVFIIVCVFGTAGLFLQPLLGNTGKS

Question: Which affinity in words [1] does the source give for `Ic1cncc(OC[C@@H]2CCN2)c1` [5-I-A-85380] here?
Answer: Its affinity in words is “high affinity”.

Question: What about the “efficacy versus 300 μM ACh, in words” value [2] of the same compound?
Answer: Its value is “more efficacious than 300 μM ACh”.

Question: What about the “response to agonist, in words” value [2] of the same compound?
Answer: The value was “responded”.

Question: And the “current amplitude (5-I-A-85380 comparison cells)” value ([2]; n = 4)?
Answer: The value was 1088±120 pA.

Question: What about the “current amplitude relative to ACh (printed "% larger than the currents evoked by ACh")” value ([2]; n = 4) of the same compound?
Answer: Its value is 170±16%.

Question: What about the current density ([2]; n = 4) of the same compound?
Answer: The current density was 256±28 pA/pF.

Question: And the “current amplitude as % of that produced by 300 μM ACh in the same cells” value [3]?
Answer: The value was 100±12.1% and 100±12%.

Question: And the “efficacy versus 300 μM ACh, in words” value [3]?
Answer: Its value is “as efficacious as 300 μM ACh”.

Question: For `CC(=O)OCC[N+](C)(C)C` [ACh, acetylcholine], which “current amplitude (5-I-A-85380 comparison cells)” value ([2]; 100 μM 5-I-A-85380 versus 300 μM ACh in the same cells, n = 4, ± S.E.M.) is on record?
Answer: The value was 657± 97 pA.

Question: And the current density ([2]; 100 μM 5-I-A-85380 versus 300 μM ACh in the same cells, n = 4, ± S.E.M., difference not statistically significant, p = 0.0625)?
Answer: The current density was 149±22 pA/pF.

Question: What about the peak current amplitude ([2]; 300 μM ACh, mean ± S.D.M, n = 18, holding potential −80 mV, 200 ms pulses) of the same compound?
Answer: The peak current amplitude was 865 ± 387 pA.

Question: What about the “current amplitude (choline comparison cells)” value ([2]; n = 4, ± S.E.M.) of the same compound?
Answer: Its value is 1245±238 pA.

Question: With `C[N+](C)(C)CCO` [choline] as the compound, how does the “current amplitude (choline comparison cells)” value ([2]; n = 4, ± S.E.M.) read?
Answer: Its value is 21±4 pA.

Question: And the “current amplitude as % of response evoked by 300 μM ACh in the same cells” value ([2]; 10 mM choline, n = 4, ± S.E.M., holding potential −80 mV)?
Answer: The value was 1.7±0.1%.

Question: And the “response to agonist, in words” value ([2]; cells with currents evoked by acetylcholine)?
Answer: Its value is “relatively unresponsive”.

Question: And the “agonist activity in words” value [4]?
Answer: The value was “full agonist”.

Question: With “α-Ctx MII (GCCSNPVCHLEHSNLC; ends and bridges not checked; cysteine pairing not given here; UniProt P56636 49-64, looked up)” as the compound, how does the “sensitivity of dopamine release to toxin, in words” value [5] read?
Answer: Its value is “sensitive”.

Question: And the “sensitivity of dopamine release to toxin, in words” value [6]?
Answer: Its value is “sensitive”.
